What was measured:
[1] = tested on: hepatocellular carcinoma cell lines; experiment: Screening against HCC cell lines; type: cell-based
Procedure: The target compounds were tested against hepatocellular carcinoma cell lines. Compounds 1j. 13a. 13b. 13c. […] The mean inhibition percentage values are illustrated in Table 9.
(§1) Two HCC cell lines (Hep3B and HepG2) were used for screening the antiproliferative activity of the synthesized compounds. The cell lines were obtained from the European Collection of Cell Cultures (ECACC, UK) and maintained in Dulbecco's Modified Eagle Medium (DMEM: Sigma-Aldrich) supplemented with 10% fetal bovine serum (FBS) and 1% penicillin/streptomycin and incubated at 37° C. in a 5% CO2 air atmosphere. In addition, WI-38 normal cell line was used to investigate the safety of these compounds.
(§2) MTT assay was conducted to calculate the IC50 of the compounds following the reported procedure . Briefly, the cells were seeded in 96-well tissue culture plates with a density of 5×10^4 cells/well and incubated overnight at 37° C. in a 5% CO2 air atmosphere. After that, cells were treated with the newly synthesized compounds or sorafenib as a positive control. DMSO was used as a negative control. After 48 h, the media were aspirated, and replaced with media containing 0.5 mg/mL of MTT tetrazolium dye (Sigma-Aldrich) for 2 h at 37° C. Finally, the media were removed and 200 μL of DMSO was added to solubilize the formazan crystals. Absorbance was then measured at 570 nm using Varioskan Flash multimode plate reader (Thermo Scientific, Massachusetts, USA).

[2] = tested on: Hep3B; experiment: MTT assay, Hep3B HCC cell line; type: cell-based; settings: Homo sapiens, 48 h, mean of triplicate assays ± SEM
Procedure: as §1
as §2, with “After that, cells were treated with the newly synthesized compounds or sorafenib as a positive control.” left out

[3] = tested on: HepG2; experiment: MTT assay, HepG2 HCC cell line; type: cell-based; settings: Homo sapiens, 48 h, mean of triplicate assays ± SEM
Procedure: as §1
as §2, with “After that, cells were treated with the newly synthesized compounds or sorafenib as a positive control.” left out

[4] = tested on: ACHN; experiment: NCI-60 cell line panel: ACHN; type: cell-based; settings: Renal Cancer, total growth inhibition
Procedure: (§3) It was carried out at the NCI, Bethesda, MD, USA, utilizing their standard protocol.

[5] = tested on: HCT-15; experiment: NCI-60 cell line panel: HCT-15; type: cell-based; settings: Colon Cancer, total growth inhibition
Procedure: as §3

[6] = tested on: OVCAR-3; experiment: NCI-60 cell line panel: OVCAR-3; type: cell-based; settings: Ovarian Cancer, total growth inhibition
Procedure: as §3

[7] = tested on: UO-31; experiment: NCI-60 cell line panel: UO-31; type: cell-based; design: TGI: unit not given here; settings: Renal Cancer, total growth inhibition
Procedure: as §3

[8] = tested on: HOP-62; experiment: NCI-60 cell line panel: HOP-62; type: cell-based; settings: Non-Small Cell Lung Cancer
Procedure: as §3

[9] = tested on: A498; experiment: NCI-60 cell line panel: A498; type: cell-based; settings: Renal Cancer, total growth inhibition
Procedure: as §3

[10] = tested on: BT-549; experiment: NCI-60 cell line panel: BT-549; type: cell-based; settings: Breast Cancer, total growth inhibition
Procedure: as §3

[11] = tested on: CCRF-CEM; experiment: NCI-60 cell line panel: CCRF-CEM; type: cell-based; settings: Leukemia
Procedure: as §3

[12] = tested on: UACC-257; experiment: NCI-60 cell line panel: UACC-257; type: cell-based; settings: Melanoma
Procedure: as §3

[13] = tested on: MALME-3M; experiment: NCI-60 cell line panel: MALME-3M; type: cell-based; settings: Melanoma
Procedure: as §3

[14] = tested on: DU-145; experiment: NCI-60 cell line panel: DU-145; type: cell-based; settings: Prostate Cancer, total growth inhibition
Procedure: as §3

[15] = tested on: NCI-H322M; experiment: NCI-60 cell line panel: NCI-H322M; type: cell-based; settings: Non-Small Cell Lung Cancer, total growth inhibition
Procedure: as §3

[16] = tested on: MCF7; experiment: NCI-60 cell line panel: MCF7; type: cell-based; settings: Breast Cancer, total growth inhibition
Procedure: as §3

[17] = tested on: OVCAR-5; experiment: NCI-60 cell line panel: OVCAR-5; type: cell-based; settings: Ovarian Cancer, total growth inhibition
Procedure: as §3

[18] = tested on: SW-620; experiment: NCI-60 cell line panel: SW-620; type: cell-based; settings: Colon Cancer, total growth inhibition
Procedure: as §3

[19] = tested on: 786-0; experiment: NCI-60 cell line panel: 786-0; type: cell-based; settings: Renal Cancer, total growth inhibition
Procedure: as §3

[20] = tested on: RXF 393; experiment: NCI-60 cell line panel: RXF 393; type: cell-based; settings: Renal Cancer, total growth inhibition
Procedure: as §3

[21] = tested on: COLO 205; experiment: NCI-60 cell line panel: COLO 205; type: cell-based; design: TGI: unit not given here; settings: Colon Cancer
Procedure: as §3

[22] = tested on: MDA-MB-468; experiment: NCI-60 cell line panel: MDA-MB-468; type: cell-based; settings: Breast Cancer, total growth inhibition
Procedure: as §3

[23] = tested on: SNB-19; experiment: NCI-60 cell line panel: SNB-19; type: cell-based; settings: CNS Cancer, total growth inhibition
Procedure: as §3

[24] = tested on: SK-OV-3; experiment: NCI-60 cell line panel: SK-OV-3; type: cell-based; settings: Ovarian Cancer, total growth inhibition
Procedure: as §3

[25] = tested on: M14; experiment: NCI-60 cell line panel: M14; type: cell-based; settings: Melanoma
Procedure: as §3

[26] = tested on: CAKI-1; experiment: NCI-60 cell line panel: CAKI-1; type: cell-based; design: TGI: unit not given here; settings: Renal Cancer, total growth inhibition
Procedure: as §3

[27] = tested on: NCI-H23; experiment: NCI-60 cell line panel: NCI-H23; type: cell-based; settings: Non-Small Cell Lung Cancer
Procedure: as §3

[28] = tested on: HS 578T; experiment: NCI-60 cell line panel: HS 578T; type: cell-based; settings: Breast Cancer, HS 578T; total growth inhibition
Procedure: as §3

[29] = tested on: NCI-H460; experiment: NCI-60 cell line panel: NCI-H460; type: cell-based; settings: Non-Small Cell Lung Cancer, total growth inhibition
Procedure: as §3

[30] = tested on: MDA-MB-231/ATCC; experiment: NCI-60 cell line panel: MDA-MB-231/ATCC; type: cell-based; settings: Breast Cancer
Procedure: as §3

[31] = tested on: NCI/ADR-RES; experiment: NCI-60 cell line panel: NCI/ADR-RES; type: cell-based; design: TGI: unit not given here; settings: Ovarian Cancer, total growth inhibition
Procedure: as §3

[32] = tested on: TK-10; experiment: NCI-60 cell line panel: TK-10; type: cell-based; settings: Renal Cancer
Procedure: as §3

[33] = tested on: SR; experiment: NCI-60 cell line panel: SR; type: cell-based; settings: Leukemia, total growth inhibition
Procedure: as §3

[34] = tested on: EKVX; experiment: NCI-60 cell line panel: EKVX; type: cell-based; settings: Non-Small Cell Lung Cancer, total growth inhibition, in µM (unit assumed)
Procedure: as §3

[35] = tested on: SF-268; experiment: NCI-60 cell line panel: SF-268; type: cell-based; settings: CNS Cancer, total growth inhibition
Procedure: as §3

[36] = tested on: panel of 50 kinases; experiment: 50-kinase panel; type: biochemical
[37] = tested on: PC-3; experiment: NCI-60 cell line panel: PC-3; type: cell-based; settings: Prostate Cancer
Procedure: as §3

[38] = tested on: SK-MEL-28; experiment: NCI-60 cell line panel: SK-MEL-28; type: cell-based; settings: Melanoma, total growth inhibition
Procedure: as §3

[39] = tested on: OVCAR-4; experiment: NCI-60 cell line panel: OVCAR-4; type: cell-based; settings: Ovarian Cancer, total growth inhibition, in µM (unit assumed)
Procedure: as §3

[40] = tested on: A549/ATCC; experiment: NCI-60 cell line panel: A549/ATCC; type: cell-based; settings: Non-Small Cell Lung Cancer, total growth inhibition
Procedure: as §3

[41] = tested on: SNB-75; experiment: NCI-60 cell line panel: SNB-75; type: cell-based; design: TGI: unit not given here; settings: CNS Cancer, total growth inhibition
Procedure: as §3

[42] = tested on: HT29; experiment: NCI-60 cell line panel: HT29; type: cell-based
Procedure: as §3

[43] = tested on: OVCAR-8; experiment: NCI-60 cell line panel: OVCAR-8; type: cell-based; settings: Ovarian Cancer, total growth inhibition, in µM (unit assumed)
Procedure: as §3

[44] = tested on: NCI-H226; experiment: NCI-60 cell line panel: NCI-H226; type: cell-based; settings: Non-Small Cell Lung Cancer
Procedure: as §3

[45] = tested on: SN12C; experiment: NCI-60 cell line panel: SN12C; type: cell-based; settings: Renal Cancer, total growth inhibition
Procedure: as §3

[46] = tested on: MOLT-4; experiment: NCI-60 cell line panel: MOLT-4; type: cell-based; design: TGI: unit not given here; settings: Leukemia, total growth inhibition
Procedure: as §3

[47] = tested on: SK-MEL-2; experiment: NCI-60 cell line panel: SK-MEL-2; type: cell-based; design: TGI: unit not given here; settings: Melanoma
Procedure: as §3

[48] = tested on: U251; experiment: NCI-60 cell line panel: U251; type: cell-based; design: TGI: unit not given here
Procedure: as §3

[49] = tested on: IGROV1; experiment: NCI-60 cell line panel: IGROV1; type: cell-based; settings: Ovarian Cancer, total growth inhibition
Procedure: as §3

[50] = tested on: NCI-H522; experiment: NCI-60 cell line panel: NCI-H522; type: cell-based; design: TGI: unit not given here; settings: Non-Small Cell Lung Cancer
Procedure: as §3

O=C(Nc1ccc(-c2cc(C(=O)Nc3ccccn3)c3ncccc3n2)cc1)Nc1ccc(F)c(C(F)(F)F)c1 [Compound 1j, 2-(4-(3-(4-Fluoro-3-(trifluoromethyl)phenyl)ureido)phenyl)-N-(pyridin-2-yl)-1,5-naphthyridine-4-carboxamide]
inhibition activity against hepatocellular carcinoma cell lines compared with sorafenib [1]: higher inhibition activity than sorafenib | IC50 [2]: 3.87 ± 0.13 µM | IC50 [3]: 3.68 ± 0.22 µM

CNC(=O)c1cc(-c2ccc(NC(=S)Nc3cc(C(F)(F)F)cc(C(F)(F)F)c3)cc2)nc2cccnc12 [Compound 1m, 2-(4-(3-(3,5-Bis(trifluoromethyl)phenyl)thioureido)phenyl)-N-methyl-1,5-naphthyridine-4-carboxamide]
inhibition activity against hepatocellular carcinoma cell lines compared with sorafenib [1]: inhibition activity comparable to sorafenib | IC50 [2]: 6.56 ± 0.31 µM | IC50 [3]: 5.74 ± 0.2 µM

CNC(=O)c1cc(-c2ccc(NC(=O)Nc3ccc(N4CCOCC4)c(C(F)(F)F)c3)cc2)nc2cccnc12 [Compound 13a, N-Methyl-2-(4-(3-(4-morpholino-3-(trifluoromethyl)phenyl)ureido)phenyl)-1,5-naphthyridine-4-carboxamide]
inhibition activity against hepatocellular carcinoma cell lines compared with sorafenib [1]: higher inhibition activity than sorafenib | IC50 [2]: 1.89 ± 0.18 µM | IC50 [3]: 1.27 ± 0.14 µM

CNC(=O)c1cc(Oc2ccc(NC(=O)Nc3ccc(Cl)c(C(F)(F)F)c3)cc2)ccn1 [Sorafenib, reference compound]
TGI [4]: 10 µM | TGI [5]: 3.16 µM | TGI [6]: 3.98 µM | TGI [7]: 6.31 | IC50 ([8]; Homo sapiens): 2 µM | TGI ([8]; total growth inhibition): 3.16 µM | TGI [9]: 3.16 µM | TGI [10]: 3.98 µM | IC50 ([11]; Homo sapiens): 2 µM | TGI ([11]; total growth inhibition): 5.01 µM | IC50 ([12]; Homo sapiens): 2 µM | TGI ([12]; total growth inhibition): 5.01 µM | IC50 ([13]; Homo sapiens): 2 µM | TGI ([13]; total growth inhibition, in µM (unit assumed)): 39.81 | TGI [14]: 7.94 µM | TGI [15]: 5.01 µM | TGI [16]: 7.94 µM | TGI [17]: 6.31 µM | TGI [18]: 5.01 µM | TGI [19]: 5.01 µM | TGI [20]: 5.01 µM | TGI ([21]; total growth inhibition): 3.16 | IC50 ([21]; Homo sapiens): 2 µM | TGI [22]: 7.94 µM | TGI [23]: 3.98 µM | TGI [24]: 5.01 µM | IC50 ([25]; Homo sapiens): 2 µM | TGI ([25]; total growth inhibition): 3.16 µM | TGI [26]: 12.59 | IC50 ([27]; Homo sapiens): 2 µM | TGI ([27]; total growth inhibition): 5.01 µM | TGI [28]: 3.98 µM | TGI [29]: 5.01 µM | TGI ([30]; total growth inhibition): 3.16 µM | IC50 ([30]; Homo sapiens): 1.26 µM | TGI [31]: 7.94 | IC50 ([32]; Homo sapiens): 3.98 µM | TGI ([32]; total growth inhibition): 10 µM | TGI [33]: 63.1 µM | TGI [34]: 19.95 | TGI [35]: 3.98 µM | number of kinases inhibited (more than 50% inhibition) [36]: 22 kinases | IC50 ([37]; Homo sapiens): 2 µM | TGI ([37]; total growth inhibition): 5.01 µM | TGI [38]: 2.51 µM | TGI [39]: 25.12 | TGI [40]: 7.94 µM | TGI [41]: 3.98 | TGI ([42]; Colon Cancer, total growth inhibition): 5.01 µM | IC50 ([42]; Homo sapiens, HT-29, Colon Cancer): 2 µM | TGI [43]: 12.59 | IC50 ([44]; Homo sapiens): 2 µM | TGI ([44]; total growth inhibition): 3.16 µM | TGI [45]: 3.16 µM | TGI [46]: 100 | IC50 ([47]; Homo sapiens): 2 µM | TGI ([47]; total growth inhibition): 6.31 | TGI ([48]; CNS Cancer, total growth inhibition): 3.16 | IC50 ([48]; Homo sapiens, U-251, CNS Cancer): 2 µM | TGI [49]: 10 µM | IC50 ([50]; Homo sapiens): 2 µM | TGI ([50]; total growth inhibition): 5.01
